# According to patent US5506221A, “Contignasterol, and related 3-alpha hydroxy-6-alpha hydroxy-7-beta hydroxy-15-keto-14-beta steroids useful as anti-inflammatory and anti-thrombosis agents” (University of British Columbia, priority 1994, dated 1996):
# Entries after “also recorded” stand apart in the source; their conditions may differ.
# Tests used:
# human basophils = assay: histamine release from human basophils/leukocytes challenged with anti-human IgE; assay type: cell-based
# Experimental: A major test to confirm the anti-allergic property of contignasterols is the histamine release from human basophils. […] We used […] human blood leukocytes from allergic (allergy to grass pollen) individuals and prepared leukocytes. The leukocytes were then challenged with anti-human IgE for the release of histamine. The leukocytes were either exposed to 50 μg/ml of contignasterol or saline alone (control). The amount of histamine released from the leukocytes was measured using radioenzymatic assay.
# tracheal tissues = assay: ovalbumin (OA)-induced contraction of tracheal tissues from sensitized guinea pigs; assay type: cell-based
# Source text: We have used the contignasterol as defined in paragraph one of the Summary to block bronchoconstriction induced in guinea pigs. Guinea pigs were sensitized to ovalbumine (OA) that can serve as an antigen. The trachea from these animals after exposure to the antigen (OA) contracted in a similar manner as to in vivo situation.
# platelets [1] = assay: platelet aggregation in response to PAF; assay type: cell-based
# Source text: (§1) PAF is a local mediator of thrombosis. Similarly, collagen exposure of vessel walls leads to the formation of […] clot in the vessels. Therefore, prevention of the formation of blood clots has direct implication in the treatment of thrombosis and associated cardiovascular diseases.
# (§2) PAF and collagen were used at their maximal concentrations to which induced 100% aggregation of platelets.
# platelets [2] = assay: platelet aggregation in response to collagen; assay type: cell-based
# Source text: as §1, §2
# [3] = system: allergeninduced challenge; assay: relative potencies of isomers of contignasterol against allergen-induced challenge; conditions: for % Inhibition: allergen-induced challenge; for inhibition: concentration not given
# Source text: Table 4 illustrates the relative potencies of different isomers of contignasterol against allergeninduced challenge.
# rat mast cells = conditions: induced by anti-IgE; cited from earlier work
structure (smiles),measurement,setting,value
"CC(C)C1CC(O)OC([C@@H](C)[C@H]2CC(=O)[C@@H]3[C@@H]4[C@@H](O)[C@H](O)[C@H]5[C@@H](O)[C@H](O)CC[C@]5(C)[C@H]4CC[C@]23C)C1 (stereo partly shown) [Compound 1, contignasterol]","inhibition of histamine release from human basophils, in words",human basophils; basophils present in the blood,inhibits histamine release
same,Histamine Release (% of Total),"human basophils; contignasterol 50 μg/ml, challenge with anti-IgE, control (no drug) 36.4, basal release 9.8",19.0 % of Total
same,Contraction (% of Maximal),"tracheal tissues; contignasterol 1 μg/ml, ovalbumine 0.001 μg/ml, control 6.6",0.00 % of Maximal
same,Contraction (% of Maximal),"tracheal tissues; contignasterol 1 μg/ml, ovalbumine 0.01 μg/ml, control 12",-7.7 % of Maximal
same,Contraction (% of Maximal),"tracheal tissues; contignasterol 1 μg/ml, ovalbumine 0.1 μg/ml, control 28.6",-8.5 % of Maximal
same,Contraction (% of Maximal),"tracheal tissues; contignasterol 1 μg/ml, ovalbumine 1 μg/ml, control 34.0",27.5 % of Maximal
same,Contraction (% of Maximal),"tracheal tissues; contignasterol 1 μg/ml, ovalbumine 10 μg/ml, control 46.0",30 % of Maximal
same,Contraction (% of Maximal),"tracheal tissues; contignasterol 1 μg/ml, ovalbumine 100 μg/ml, control 55.7",39 % of Maximal
same,Contraction (% of Maximal),"tracheal tissues; contignasterol 1 μg/ml, ovalbumine 300 μg/ml, control 56",39.7 % of Maximal
same,Contraction (% of Maximal),"tracheal tissues; contignasterol 10 μg/ml, ovalbumine 0.001 μg/ml, control 6.6",0.00 % of Maximal
same,Contraction (% of Maximal),"tracheal tissues; contignasterol 10 μg/ml, ovalbumine 0.01 μg/ml, control 12",-8.0 % of Maximal
same,Contraction (% of Maximal),"tracheal tissues; contignasterol 10 μg/ml, ovalbumine 0.1 μg/ml, control 28.6",-8.0 % of Maximal
same,Contraction (% of Maximal),"tracheal tissues; contignasterol 10 μg/ml, ovalbumine 1 μg/ml, control 34.0",6.0 % of Maximal
same,Contraction (% of Maximal),"tracheal tissues; contignasterol 10 μg/ml, ovalbumine 10 μg/ml, control 46.0",16.0 % of Maximal
same,Contraction (% of Maximal),"tracheal tissues; contignasterol 10 μg/ml, ovalbumine 100 μg/ml, control 55.7",16.6 % of Maximal
same,Contraction (% of Maximal),"tracheal tissues; contignasterol 10 μg/ml, ovalbumine 300 μg/ml, control 56",29.6 % of Maximal
same,Contraction (% of Maximal),"tracheal tissues; contignasterol 50 μg/ml, ovalbumine 0.001 μg/ml, control 6.6",0.00 % of Maximal
same,Contraction (% of Maximal),"tracheal tissues; contignasterol 50 μg/ml, ovalbumine 0.01 μg/ml, control 12",0.0 % of Maximal
same,Contraction (% of Maximal),"tracheal tissues; contignasterol 50 μg/ml, ovalbumine 0.1 μg/ml, control 28.6",0.0 % of Maximal
same,Contraction (% of Maximal),"tracheal tissues; contignasterol 50 μg/ml, ovalbumine 1 μg/ml, control 34.0",5.5 % of Maximal
same,Contraction (% of Maximal),"tracheal tissues; contignasterol 50 μg/ml, ovalbumine 10 μg/ml, control 46.0",11.1 % of Maximal
same,Contraction (% of Maximal),"tracheal tissues; contignasterol 50 μg/ml, ovalbumine 100 μg/ml, control 55.7",16.6 % of Maximal
same,Contraction (% of Maximal),"tracheal tissues; contignasterol 50 μg/ml, ovalbumine 300 μg/ml, control 56",22 % of Maximal
same,"effect on antigen-induced tracheal/airway smooth muscle contraction, in words","tracheal tissues; tissue pretreated, exposed to antigen (OA)",did not significantly contract; also recorded: inhibited airway smooth muscle contraction
same,"inhibition of platelet aggregation caused by PAF, in words",platelets [1]; PAF,inhibited aggregation of platelets; also recorded: inhibits platelet aggregation
same,activity at 5 µg/mL,"platelets [1]; Platelet, contignasterol 5 μg/ml, PAF at maximal concentration, read-out: Aggregation (% of Control), PAF",90%
same,activity at 10 µg/mL,"platelets [1]; Platelet, contignasterol 10 μg/ml, PAF at maximal concentration, read-out: Aggregation (% of Control), PAF",56%
same,activity at 20 µg/mL,"platelets [1]; Platelet, contignasterol 20 μg/ml, PAF at maximal concentration, read-out: Aggregation (% of Control), PAF",44%
same,activity at 30 µg/mL,"platelets [1]; Platelet, contignasterol 30 μg/ml, PAF at maximal concentration, read-out: Aggregation (% of Control), PAF",28%
same,activity at 50 µg/mL,"platelets [1]; Platelet, contignasterol 50 μg/ml, PAF at maximal concentration, read-out: Aggregation (% of Control), PAF",0%
same,activity at 5 µg/mL,"platelets [2]; Platelet, contignasterol 5 μg/ml, collagen at maximal concentration, read-out: Aggregation (% of Control), Collagen",70%
same,activity at 30 µg/mL,"platelets [2]; Platelet, contignasterol 30 μg/ml, collagen at maximal concentration, read-out: Aggregation (% of Control), Collagen",0%
same,activity at 50 µg/mL,"platelets [2]; Platelet, contignasterol 50 μg/ml, collagen at maximal concentration, read-out: Aggregation (% of Control), Collagen",0%
same,"inhibition of platelet aggregation caused by collagen, in words",platelets [2]; collagen,inhibited aggregation of platelets; also recorded: inhibits platelet aggregation
same,% Inhibition,[3]; 10 μM,43%
same,inhibition,[3],47%
"CC(C)C1CC(O)OC([C@@H](C)[C@H]2CC(=O)[C@H]3[C@@H]4[C@@H](O)[C@H](O)[C@H]5[C@@H](O)[C@H](O)CC[C@]5(C)[C@H]4CC[C@]23C)C1 (stereo partly shown) [Compound 2, 14-epicontignasterol]",% Inhibition,[3]; 10 μM,25%
same,inhibition,[3],25%
COC1CC(C(C)C)CC([C@@H](C)[C@H]2CC(=O)[C@@H]3[C@@H]4[C@@H](O)[C@H](O)[C@H]5[C@@H](O)[C@H](O)CC[C@]5(C)[C@H]4CC[C@]23C)O1 (stereo partly shown) [Compound 3],% Inhibition,[3]; 10 μM,12%
same,"change in potency on conversion of hemiacetal to methyl acetal, in words","[3]; 10 μM, methyl acetal (3) versus contignasterol (1)",significant decrease in the potency
same,inhibition,[3],12%
"CC(C)C[C@]1(O)C[C@@H](C)[C@H]2[C@@H]1C(=O)[C@@H]1[C@@H]3[C@@H](O)[C@H](O)[C@H]4C[C@H](O)CC[C@]4(C)[C@H]3CC[C@]21C [xestobergsterol A, 23S-16β, 23-cyclo-3α,6α,7β,23-tetrahydroxy-5α,14β-cholestan-15-one]","inhibition of histamine release, in words",rat mast cells,potent inhibitors of histamine release
"CC(C)C[C@]1(O)C[C@@H](C)[C@H]2[C@@H]1C(=O)[C@@H]1[C@@H]3[C@@H](O)[C@H](O)[C@H]4C[C@H](O)[C@@H](O)[C@@H](O)[C@]4(C)[C@H]3CC[C@]21C [xestobergsterol B, 23S-16β,23-cyclo-1β,2β,3α,6α,7β,23-hexahydroxy-5α,14β-cholestan-15-one]","inhibition of histamine release, in words",rat mast cells,potent inhibitors of histamine release
